From article PMC10698726 (Molecular Pharmaceutics, 2023)
Read-outs that look alike come from different tables or passages of the source.

Key:
[1] = target: T1, OCT1 (Homo sapiens, UniProt O15245); experiment: Inhibition of model substrate uptake in OCT1-overexpressing HEK293 cells; type: cell-based; design: expressed in transfected cells; host or cells: HEK293; conditions: for IC50: read-out: IC50; for inhibition at 5 min, 20 μM / selectivity ratio at 5 min: OCT1-overexpressing HEK293 cells; for selectivity ratio at 5 min: ratio of the IC50 values of both isomers, label = isomer named in the cell (as a rule the one with the higher IC50), read-out: Stereoselectivity (x-fold for the named isomer)
T1 sequence (O15245 1-554): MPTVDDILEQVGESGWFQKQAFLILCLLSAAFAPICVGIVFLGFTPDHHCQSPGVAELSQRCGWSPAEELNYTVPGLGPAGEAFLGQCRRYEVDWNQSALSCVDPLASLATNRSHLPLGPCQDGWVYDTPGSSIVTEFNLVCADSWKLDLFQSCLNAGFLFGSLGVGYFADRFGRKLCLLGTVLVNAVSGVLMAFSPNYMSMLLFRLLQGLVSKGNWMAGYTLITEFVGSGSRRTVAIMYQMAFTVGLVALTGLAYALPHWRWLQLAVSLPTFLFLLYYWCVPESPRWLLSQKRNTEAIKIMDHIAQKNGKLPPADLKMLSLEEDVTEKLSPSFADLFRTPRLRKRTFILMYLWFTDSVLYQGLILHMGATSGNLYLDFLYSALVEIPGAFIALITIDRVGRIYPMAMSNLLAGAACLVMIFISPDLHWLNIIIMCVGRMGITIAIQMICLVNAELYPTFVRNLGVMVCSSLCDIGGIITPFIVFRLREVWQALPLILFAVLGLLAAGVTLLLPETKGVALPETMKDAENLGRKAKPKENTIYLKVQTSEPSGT
Description: Koepsell and Gorbulev (University of Würzburg, Germany).
Fluorescence quantification was performed in technical duplicates.

[2] = target: T2, OCT3 (Homo sapiens, UniProt O75751); experiment: Inhibition of model substrate uptake in OCT3-overexpressing HEK293 cells; type: cell-based
T2 construct: expressed in transfected cells; host or cells: HEK293
T2 sequence (O75751 1-556): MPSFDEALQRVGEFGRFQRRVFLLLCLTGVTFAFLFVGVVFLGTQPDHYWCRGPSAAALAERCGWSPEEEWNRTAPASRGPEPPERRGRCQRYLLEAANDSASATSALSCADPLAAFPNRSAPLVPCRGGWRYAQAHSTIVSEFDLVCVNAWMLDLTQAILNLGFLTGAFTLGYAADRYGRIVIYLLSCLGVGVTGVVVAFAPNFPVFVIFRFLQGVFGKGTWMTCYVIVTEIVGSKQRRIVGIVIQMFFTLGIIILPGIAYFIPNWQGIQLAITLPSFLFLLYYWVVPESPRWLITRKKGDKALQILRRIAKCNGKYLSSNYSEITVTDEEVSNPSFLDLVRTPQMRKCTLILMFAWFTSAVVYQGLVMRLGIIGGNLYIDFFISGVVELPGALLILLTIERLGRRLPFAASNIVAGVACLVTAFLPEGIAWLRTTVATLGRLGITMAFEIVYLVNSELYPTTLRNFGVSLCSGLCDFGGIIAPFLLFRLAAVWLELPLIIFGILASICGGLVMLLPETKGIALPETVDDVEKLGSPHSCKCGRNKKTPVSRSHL
Summary of the method: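 Transporter-overexpressing HEK293 cells were incubated 5 min in HBSS+ with 2 μM model substrate, with or without 20 μM inhibitor or increasing inhibitor concentrations. Uptake was read as ASP^+ fluorescence or by LC–MS/MS, with empty-vector uptake subtracted. IC50 came from a Hill fit of activity versus log concentration.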

[3] = target: T3, OCT2 (Homo sapiens, UniProt O15244); experiment: Inhibition of model substrate uptake in OCT2-overexpressing HEK293 cells; conditions: for inhibition at 5 min, 20 μM / (S,S)-Ethambutol inhibition [%] / ASP+ inhibition [%] / N-Ethyllidocaine inhibition [%]: OCT2, 20 μM inhibitor
T3 sequence (O15244 1-555): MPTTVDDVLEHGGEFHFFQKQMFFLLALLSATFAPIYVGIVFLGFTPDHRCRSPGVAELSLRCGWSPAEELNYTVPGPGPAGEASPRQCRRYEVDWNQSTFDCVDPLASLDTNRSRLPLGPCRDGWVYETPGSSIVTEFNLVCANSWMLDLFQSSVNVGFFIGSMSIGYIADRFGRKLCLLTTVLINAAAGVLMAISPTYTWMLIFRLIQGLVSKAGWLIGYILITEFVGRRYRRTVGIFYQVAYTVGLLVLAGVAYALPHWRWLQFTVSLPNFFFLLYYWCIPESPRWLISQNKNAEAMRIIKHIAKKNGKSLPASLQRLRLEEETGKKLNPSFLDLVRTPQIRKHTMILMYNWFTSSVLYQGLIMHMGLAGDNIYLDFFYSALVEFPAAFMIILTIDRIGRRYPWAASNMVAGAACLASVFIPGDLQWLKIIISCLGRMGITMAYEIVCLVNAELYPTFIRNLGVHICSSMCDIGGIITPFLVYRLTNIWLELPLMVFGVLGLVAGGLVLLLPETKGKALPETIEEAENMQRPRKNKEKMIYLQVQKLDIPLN

[4] = human, pH 7.4, probe (S,S)-ethambutol (2 μM), (S,S)-Ethambutol inhibition [%], OCT1, 20 μM inhibitor, 2 μM (S,S)-ethambutol, 5 min
[5] = human, pH 7.4, probe ASP+ (2 μM), OCT1, 20 μM inhibitor, 2 μM ASP+, 5 min, mean of three experiments, read-out: ASP+ inhibition [%]
[6] = human, pH 7.4, probe sumatriptan (2 μM), OCT1, 20 μM inhibitor, 2 μM sumatriptan, 5 min, read-out: Sumatriptan inhibition [%]
[7] = HEK293, 5 min, read-out: (S)-Zolmitriptan inhibition [%], OCT3, 20 μM inhibitor, 2 μM (S)-zolmitriptan, 5 min
[8] = HEK293, 5 min, read-out: (S,S)-Ethambutol inhibition [%], OCT3, 20 μM inhibitor, 2 μM (S,S)-ethambutol, 5 min
[9] = HEK293, OCT3, 20 μM inhibitor, 2 μM ASP+, 5 min, read-out: ASP+ inhibition [%]
[10] = human, OCT2-overexpressing HEK293 cells, pH 7.4, probe (S,S)-ethambutol (2 μM), (S,S)-Ethambutol inhibition [%], 2 μM (S,S)-ethambutol, 5 min
[11] = human, OCT2-overexpressing HEK293 cells, pH 7.4, probe ASP+ (2 μM), ASP+ inhibition [%], 2 μM ASP+, 5 min
[12] = human, OCT2-overexpressing HEK293 cells, pH 7.4, probe N-ethyllidocaine (2 μM), N-Ethyllidocaine inhibition [%], 2 μM N-ethyllidocaine, 5 min
[13] = OCT1, 20 μM inhibitor, 2 μM (S,S)-ethambutol, 5 min
[14] = OCT1, 20 μM inhibitor, 2 μM ASP+, 5 min, mean of three experiments
[15] = OCT1, 20 μM inhibitor, 2 μM sumatriptan, 5 min
[16] = OCT3, 20 μM inhibitor, 2 μM (S)-zolmitriptan, 5 min
[17] = OCT3, 20 μM inhibitor, 2 μM (S,S)-ethambutol, 5 min
[18] = OCT3, 20 μM inhibitor, 2 μM ASP+, 5 min
[19] = IC50, OCT2, Table S5, 2 μM ASP+ as model substrate, 5 min

| Structure (SMILES) | inhibition at 5 min, 20 μM [1, 4] [%] | inhibition at 5 min, 20 μM [1, 5] [%] | inhibition at 5 min, 20 μM [1, 6] [%] | inhibition at 20 µM [2, 7] [%] | inhibition at 20 µM [2, 8] [%] | inhibition at 20 µM [2, 9] [%] | inhibition at 5 min, 20 μM [3, 10] [%] | inhibition at 5 min, 20 μM [3, 11] [%] | inhibition at 5 min, 20 μM [3, 12] [%] | (S,S)-Ethambutol inhibition [%] [1, 13] [%] | ASP+ inhibition [%] [1, 14] [%] | Sumatriptan inhibition [%] [1, 15] [%] | (S)-Zolmitriptan inhibition [%] [2, 16] [%] | (S,S)-Ethambutol inhibition [%] [2, 17] [%] | ASP+ inhibition [%] [2, 18] [%] | (S,S)-Ethambutol inhibition [%] ([3]; 2 μM (S,S)-ethambutol, 5 min) | ASP+ inhibition [%] ([3]; 2 μM ASP+, 5 min) | N-Ethyllidocaine inhibition [%] ([3]; 2 μM N-ethyllidocaine, 5 min) | also measured |
| --- | --- | --- | --- | --- | --- | --- | --- | --- | --- | --- | --- | --- | --- | --- | --- | --- | --- | --- | --- |
| CCCCN1CCCC[C@H]1C(=O)Nc1c(C)cccc1C [(S)-Bupivacaine] | 50.6 | 23.5 | 43.9 | 37.2 | 33.4 | 24.3 | 38.5 | 43.1 | 50.2 | – | – | – | – | – | – | – | – | – | IC50 ([1]; OCT1, Table 1): 18.7 µM; selectivity ratio at 5 min ([1]; human, pH 7.4, OCT1, Table S5): 1.8; IC50 ([3]; IC50 [μM], OCT2, Table 1): 48.4 µM; selectivity ratio at 5 min ([3]; human, OCT2-overexpressing HEK293 cells, pH 7.4): 2.3 |
| COc1ccccc1OCCNC[C@H](O)COc1cccc2[nH]c3ccccc3c12 [(S)-Carvedilol] | 100 | 74.5 | 96.5 | 32.8 | 49.5 | 16.3 | 8.7 | 94.9 | 48.8 | – | – | – | – | – | – | – | – | – | – |
| N[C@H]1CONC1=O [(S)-Cycloserine] | – | – | – | – | – | – | – | – | – | 0.3 | -2.6 | 35.9 | 6.3 | 12.2 | 19.3 | 0.8 | 14.6 | 14.6 | – |
| C#CCN(C)[C@@H](C)Cc1ccccc1 [(S)-Deprenyl] | – | – | – | – | – | – | – | – | – | – | 26.1 | – | – | – | 9.6 | – | 88.0 | 47.7 | Sumatriptan inhibition [%] ([1]; human, pH 7.4): 68.6%; (S)-Zolmitriptan inhibition [%] [2]: 11.5%; (S,S)-Ethambutol inhibition [%] [2]: 20.9%; IC50 [3, 19]: 3.4 µM; selectivity ratio ([3]; human, pH 7.4): 1.4 |
| CN(C)CCO[C@@](C)(c1ccccc1)c1ccccn1 [(S)-Doxylamine] | – | – | – | – | – | – | – | – | – | 86.5 | 51.7 | 88.2 | 33.8 | 35.8 | 7.4 | 26.3 | 64.3 | -17.1 | IC50 ([1]; OCT1, Table S5, 2 μM ASP+ or ethambutol as model substrate, 5 min): 32.2 µM; selectivity ratio at 5 min ([1]; human, pH 7.4, OCT1, Table S5): 1.4 |
| OC[C@@H](O)CN1CCN(c2ccccc2)CC1 [(S)-Dropropizine] | – | – | – | – | – | – | – | – | – | 27.4 | 24.6 | 30.4 | -17.1 | 6.7 | 29.1 | 20.5 | 51.1 | 7.5 | IC50 [3, 19]: 55.6 µM |
| CNCC[C@H](Oc1cccc2ccccc12)c1cccs1 [(S)-Duloxetine] | 86.9 | 43.3 | 88.5 | – | – | – | 19.4 | 70.2 | 46.1 | – | – | – | – | – | – | – | – | – | inhibition at 20 µM ([2]; HEK293, 5 min, read-out: (S)-Zolmitriptan inhibition [%]): 19.6%; inhibition at 20 µM ([2]; HEK293, 5 min, read-out: (S,S)-Ethambutol inhibition [%]): 25.2%; inhibition at 20 µM ([2]; HEK293, read-out: ASP+ inhibition [%]): 2.4%; IC50 ([3]; IC50): 16.6 µM |
| CNCC[C@H](Oc1ccc(C(F)(F)F)cc1)c1ccccc1 [(S)-Fluoxetine] | – | – | – | – | – | – | – | – | – | 78.6 | 47.7 | 82.3 | – | – | – | 6.4 | 56.6 | 28.7 | (S)-Zolmitriptan inhibition [%] [2]: 13.8; (S,S)-Ethambutol inhibition [%] [2]: 12.3; ASP+ inhibition [%] [2]: -3.1 |
| CC(C)Cc1ccc([C@H](C)C(=O)O)cc1 [(S)-Ibuprofen] | -10.6 | 8.8 | -3.4 | -0.8 | 11.3 | 12.9 | 14.5 | 10.9 | 10.4 | – | – | – | – | – | – | – | – | – | – |
